These results are taken from PubChem BioAssay (NCI).

Some test systems named below: K-562 leukemia; NCI-H460 lung; SW-620 colon; NCI-H522 lung; SNB-19 CNS; OVCAR-3 ovarian; OVCAR-8 ovarian; IGROV1 ovarian; TK-10 renal; HT29 colon.
Holding throughout (experiment): inhibition of tumour cell growth, NCI panel, 48 h

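Five compound concentrations were applied to cells in 96-well plates for 48 hours; endpoints were derived by simple linear interpolation of the resulting dose-response curve. TGI marks complete inhibition of growth.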

On to `O=C1CC(c2ccccc2)n2c(nc3ccccc32)N1` (stereo not drawn), for which the TGI with K-562 leukemia, in the experiment with NCI-H460 lung, in the experiment on SW-620 colon, in the experiment on NCI-H522 lung, with SNB-19 CNS and in the experiment with OVCAR-3 ovarian was over 100 µM each time. Also, the TGI in the experiment on OVCAR-8 ovarian, in the experiment with IGROV1 ovarian, in the experiment on TK-10 renal and in the experiment with HT29 colon was over 100 µM in each case.
With `CN(C)CCCn1c(Cn2nc3ccccc3n2)nc2cc(C(F)(F)F)ccc21`, the TGI is 36.6 µM in the experiment with K-562 leukemia; 89 µM with NCI-H460 lung; over 100 µM in the experiment on SW-620 colon; 31.2 µM in the experiment with NCI-H522 lung; over 100 µM with SNB-19 CNS; over 100 µM in the experiment on OVCAR-3 ovarian. Moreover, the TGI in the experiment on OVCAR-8 ovarian was over 100 µM; in the experiment on IGROV1 ovarian it was over 100 µM; in the experiment on TK-10 renal it was 80.6 µM; with HT29 colon it was 46.2 µM.
`Cc1nn2c(c1C#N)NNc1c-2sc(=N)nnc1=O`: the TGI with K-562 leukemia, with SW-620 colon, in the experiment with NCI-H522 lung, in the experiment on SNB-19 CNS, in the experiment on OVCAR-3 ovarian and in the experiment with OVCAR-8 ovarian was over 100 µM in each case. The TGI in the experiment with IGROV1 ovarian, in the experiment on TK-10 renal and in the experiment on HT29 colon was over 100 µM throughout.
`COc1ccc2c(c1)/c(=C/C#N)c1c3ccccc3[n+](C)n21`: the TGI in the experiment with K-562 leukemia is over 69.8 µM; in the experiment on NCI-H460 lung it was 32.9 µM; with SW-620 colon, over 39.2 µM; in the experiment on NCI-H522 lung, 20.4 µM; with SNB-19 CNS, 51.5 µM; in the experiment on OVCAR-3 ovarian, 4.29 µM. Also, the TGI with OVCAR-8 ovarian was over 100 µM; in the experiment on IGROV1 ovarian it was 31 µM; with TK-10 renal, 20.7 µM; with HT29 colon, 10.6 µM.
`CSc1ccc2c(c1)c(CCN)c(C)n2Cc1ccccc1Cl`: the TGI in the experiment with K-562 leukemia is 2.83 µM; with NCI-H460 lung it was 3.02 µM; with SW-620 colon it was 3.89 µM; with NCI-H522 lung it was 3 µM; with SNB-19 CNS, 3.32 µM; with OVCAR-3 ovarian it was 3.3 µM. Moreover, the TGI in the experiment with IGROV1 ovarian is 3.25 µM; in the experiment with TK-10 renal, 3.15 µM; in the experiment on HT29 colon it was 3.09 µM.
On to `Cc1cc(C)c2c(n1)S(=O)(=O)N(CCCN1CCN(c3cccc(Cl)c3)CC1)/C(=C(\O)c1ccc(Br)cc1)C2=O`, for which the TGI was over 100 µM in the experiment on K-562 leukemia; 33.2 µM with NCI-H460 lung; over 100 µM in the experiment with SW-620 colon; over 100 µM in the experiment on NCI-H522 lung; 98.4 µM in the experiment on SNB-19 CNS; 94.7 µM in the experiment on OVCAR-3 ovarian. The TGI in the experiment with OVCAR-8 ovarian is over 100 µM; in the experiment with IGROV1 ovarian, over 100 µM; in the experiment on TK-10 renal, 60.8 µM; in the experiment on HT29 colon, 98.8 µM.
Take `CC[C@]12C=CCN3CC[C@@]4(c5cc(Br)c(OC)cc5N(C)[C@H]4[C@@](O)(C(=O)NC(Cc4c[nH]c5ccccc45)C(=O)OC)[C@@H]1O)[C@@H]32` (stereo partly drawn): the TGI in the experiment on K-562 leukemia, with SW-620 colon, in the experiment on NCI-H522 lung, in the experiment with SNB-19 CNS, in the experiment with OVCAR-3 ovarian and with OVCAR-8 ovarian was over 100 µM throughout. Besides, the TGI with IGROV1 ovarian and in the experiment with HT29 colon was over 100 µM each time.
Turning to `COC(=O)C12Oc3ccc(-c4ccc5c(c4O)C(O)=C4C(=O)CC(C)C(O)C4(C(=O)OC)O5)c(O)c3C(O)=C1C(=O)CC(C)C2O` (stereo not drawn), the TGI in the experiment on K-562 leukemia is over 100 µM; in the experiment with NCI-H460 lung it was over 100 µM; in the experiment on SW-620 colon, over 100 µM; in the experiment on NCI-H522 lung, 0.309 µM; in the experiment on SNB-19 CNS, over 100 µM; with OVCAR-8 ovarian, over 100 µM. The results for the TGI in the experiment with IGROV1 ovarian, in the experiment with TK-10 renal and with HT29 colon were over 100 µM, 4.46 µM and 0.479 µM, respectively.
With `N#COc1ccc(Oc2ccc(OC#N)cc2)cc1`, the TGI in the experiment on K-562 leukemia, in the experiment with NCI-H460 lung, in the experiment on NCI-H522 lung, in the experiment with SNB-19 CNS, in the experiment with OVCAR-3 ovarian and with OVCAR-8 ovarian was over 100 µM throughout. Further, the TGI with IGROV1 ovarian, in the experiment on TK-10 renal and in the experiment with HT29 colon was over 100 µM each time.
Regarding `CSC(C1c2ccccc2N(C)c2[nH]c(=O)n(C)c(=O)c21)S(=O)(=O)c1ccc(C)cc1` (stereo not drawn), the TGI with K-562 leukemia was over 100 µM; in the experiment with SW-620 colon, over 100 µM; with NCI-H522 lung, 46.6 µM; in the experiment on SNB-19 CNS, over 100 µM; with OVCAR-3 ovarian it was over 100 µM; in the experiment on OVCAR-8 ovarian it was over 100 µM. Also, the TGI with IGROV1 ovarian, in the experiment with TK-10 renal and in the experiment on HT29 colon was over 100 µM throughout.
`CN(C)S(=O)(=O)c1nc(Cl)c2[nH]cnc2n1`: the TGI in the experiment on K-562 leukemia, with SW-620 colon, in the experiment on NCI-H522 lung, in the experiment with SNB-19 CNS, in the experiment with OVCAR-3 ovarian and in the experiment with OVCAR-8 ovarian was over 100 µM in each case. Moreover, the TGI in the experiment with IGROV1 ovarian, in the experiment with TK-10 renal and in the experiment with HT29 colon was over 100 µM each time.
As for `COc1cc(S(=O)(=O)Nc2ccc(-c3csc(N4C(=O)CSC4c4ccccc4O)n3)cc2)ccc1Cl` (stereo not drawn), the TGI in the experiment with K-562 leukemia was over 100 µM; with NCI-H460 lung it was 52.8 µM; in the experiment with SW-620 colon it was over 100 µM; in the experiment on NCI-H522 lung it was 55.6 µM; in the experiment with SNB-19 CNS, over 100 µM; in the experiment on OVCAR-3 ovarian, over 100 µM. Besides, the TGI with OVCAR-8 ovarian, with IGROV1 ovarian and with HT29 colon was over 100 µM throughout.
In the case of `C=C(C)CCC1C=[N+]([O-])OC(C)(C)C1(C)C` (stereo not drawn), the TGI in the experiment with K-562 leukemia, in the experiment with NCI-H460 lung, in the experiment on SW-620 colon, in the experiment on NCI-H522 lung, in the experiment on OVCAR-3 ovarian and with OVCAR-8 ovarian was over 100 µM in each case. Moreover, the TGI with IGROV1 ovarian, in the experiment on TK-10 renal and in the experiment with HT29 colon was over 100 µM throughout.
As to `CCOC(=O)c1cc(C)nc2c1c(=O)n(-c1ccccc1)c(=O)n2CCCCN1CCN(c2ncccn2)CC1`, the TGI in the experiment on K-562 leukemia, in the experiment with SW-620 colon, in the experiment on NCI-H522 lung, with OVCAR-3 ovarian, with OVCAR-8 ovarian and in the experiment on IGROV1 ovarian was over 100 µM each time. In addition, the TGI in the experiment with TK-10 renal and in the experiment with HT29 colon was over 100 µM in each case.
